Here are results for 13 compounds from ChEMBL document CHEMBL2057161, “Synthesis and evaluation of nitric oxide-releasing DDB derivatives as potential Pgp-mediated MDR reversal agents in MCF-7/Adr cells” (Bioorg Med Chem Lett, 2012).

The test system of series [1] is HepG2. The series can be described thus: Antiproliferative activity against human HepG2 cells after 48 hrs by MTT assay. The class given is functional, cell-based. The note with it: HepG2, 48 h. A general note: Tetrazolium dyes change colour on reduction, which living cells bring about.
Series [2] addresses T1, ATP-dependent translocase ABCB1 (Homo sapiens, UniProt P08183). The series can be described thus: Inhibition of P-glycoprotein overexpressed in human MCF7/ADR cells assessed as increase in doxorubicin accumulation at 25 uM incubated for 1.5 hrs prior to doxorubicin treatment measured after 1.5 hrs by HPLC analysis. The class given is cell-based. The note with it: nci/adr-res.

The nature of series [3]: Downregulation of doxorubicin-induced P-glycoprotein expression in human MCF7/ADR cells at 25 uM after 48 hrs by Western blot analysis. The class given is functional, cell-based. The note with it: NCI/ADR-RES.
In series [4] the test system is NCI/ADR-RES. The series is described as follows: Antiproliferative activity against human MCF7/ADR up to 25 uM cells after 48 hrs by MTT assay. The class given is functional, cell-based.
Series [5] addresses T1, ATP-dependent translocase ABCB1. The series can be described thus: Inhibition of P-glycoprotein overexpressed in human MCF7/ADR cells assessed as increase in doxorubicin accumulation at 25 uM incubated for 1.5 hrs prior to doxorubicin treatment measured after 1.5 hrs by HPLC analysis in presence of hemoglobin. The class given is cell-based. As to conditions: nci/adr-res.

Series [6] deals with NCI/ADR-RES. The series can be described thus: Induction of nitric oxide release in human MCF7/ADR cells at 25 uM by Griess method. The class given is functional, cell-based. (Griess reagent forms a coloured azo dye with nitrite.)
The target of series [7] is T1, ATP-dependent translocase ABCB1. The series is described as follows: Inhibition of P-glycoprotein in human MCF7 assessed as increase in doxorubicin accumulation at 25 uM incubated for 1.5 hrs prior to doxorubicin treatment measured after 1.5 hrs by HPLC analysis. The note with it: mcf7, 1.5 h.
The target is the same in series [8]. The series can be described thus: Inhibition of P-glycoprotein overexpressed in human Caco2 cells assessed as increase in digoxin accumulation at 5 to 25 uM incubated for 1.5 hrs prior to digoxin treatment measured after 1.5 hrs by LC/MS/MS analysis in presence of hemoglobin. The class given is cell-based. The note with it: caco-2, 1.5 h.
The target is the same in series [9]. The series is described as follows: Inhibition of P-glycoprotein in human MCF7 assessed as increase in doxorubicin accumulation at 25 uM incubated for 1.5 hrs prior to doxorubicin treatment measured after 1.5 hrs by HPLC analysis in presence of hemoglobin. As to conditions: mcf7, 1.5 h.
Series [10] shares this target. The series can be described thus: Inhibition of P-glycoprotein overexpressed in human Caco2 cells assessed as decrease in digoxin efflux at 25 uM incubated for 90 mins prior to digoxin treatment measured after 90 mins by LC/MS/MS analysis. The class given is cell-based. The note with it: caco-2, 1.5 h.
The test system of series [11] is MCF7. The series can be described thus: Antiproliferative activity against human MCF7 up to 25 uM cells after 48 hrs by MTT assay. The class given is functional, cell-based.
Series [12] has as its target T1, ATP-dependent translocase ABCB1. The series is described as follows: Inhibition of P-glycoprotein in human MCF7/ADR cells assessed as potentiation of doxorubicin antiproliferative activity after 48 hrs by MTT assay. The class given is cell-based. As to conditions: nci/adr-res.
Series [13] has the same target. The series can be described thus: Inhibition of P-glycoprotein overexpressed in human Caco2 cells assessed as increase in digoxin permeability at 25 uM incubated for 90 mins prior to digoxin treatment measured after 90 mins by LC/MS/MS analysis. The class given is cell-based. As to conditions: caco-2, 1.5 h.

Active and inactive are the calls of the source. No cut-off for these calls is given here.

T1 sequence (P08183 whole entry): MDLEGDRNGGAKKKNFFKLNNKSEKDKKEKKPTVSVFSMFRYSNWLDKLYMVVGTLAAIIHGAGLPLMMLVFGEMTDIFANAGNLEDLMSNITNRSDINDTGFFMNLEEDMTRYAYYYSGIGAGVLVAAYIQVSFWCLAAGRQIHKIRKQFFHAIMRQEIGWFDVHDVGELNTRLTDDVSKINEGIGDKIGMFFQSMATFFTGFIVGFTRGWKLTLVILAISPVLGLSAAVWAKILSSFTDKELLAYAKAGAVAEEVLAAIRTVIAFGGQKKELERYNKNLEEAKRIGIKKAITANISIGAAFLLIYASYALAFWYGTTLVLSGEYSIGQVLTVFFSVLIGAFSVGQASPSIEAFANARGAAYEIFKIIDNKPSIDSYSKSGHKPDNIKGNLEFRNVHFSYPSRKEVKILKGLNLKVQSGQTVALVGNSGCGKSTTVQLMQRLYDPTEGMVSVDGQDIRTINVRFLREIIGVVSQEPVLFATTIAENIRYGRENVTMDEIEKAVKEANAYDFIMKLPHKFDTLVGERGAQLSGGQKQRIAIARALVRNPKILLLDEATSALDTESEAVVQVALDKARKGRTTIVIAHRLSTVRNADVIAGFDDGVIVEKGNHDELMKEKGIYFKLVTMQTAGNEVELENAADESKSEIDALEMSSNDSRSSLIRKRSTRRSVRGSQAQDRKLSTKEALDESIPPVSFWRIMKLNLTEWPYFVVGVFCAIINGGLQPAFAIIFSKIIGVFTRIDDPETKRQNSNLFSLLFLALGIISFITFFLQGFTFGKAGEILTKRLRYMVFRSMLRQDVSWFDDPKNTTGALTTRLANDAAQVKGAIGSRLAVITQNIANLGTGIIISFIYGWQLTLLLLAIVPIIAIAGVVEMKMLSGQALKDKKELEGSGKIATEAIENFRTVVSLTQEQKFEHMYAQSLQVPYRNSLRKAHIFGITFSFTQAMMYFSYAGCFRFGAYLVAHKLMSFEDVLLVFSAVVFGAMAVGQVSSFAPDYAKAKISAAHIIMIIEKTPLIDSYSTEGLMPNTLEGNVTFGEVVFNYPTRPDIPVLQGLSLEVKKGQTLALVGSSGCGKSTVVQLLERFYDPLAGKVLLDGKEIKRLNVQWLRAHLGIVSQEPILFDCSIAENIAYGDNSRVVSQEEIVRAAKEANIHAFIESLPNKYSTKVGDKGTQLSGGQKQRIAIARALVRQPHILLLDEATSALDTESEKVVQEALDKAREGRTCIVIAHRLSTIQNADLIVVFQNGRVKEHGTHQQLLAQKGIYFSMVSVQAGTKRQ

Consider `COC(=O)c1cc(OC)c2c(c1-c1c(C(=O)NCCC(=O)OCCOCCOc3no[n+]([O-])c3S(=O)(=O)c3ccccc3)cc(OC)c3c1OCO3)OCO2`, for which the IC50 (as a rule, the midpoint of a concentration-inhibition curve) in [1] came to 1.88 µM.
On to `COC(=O)c1cc(OC)c2c(c1-c1c(C(=O)N[C@@H](C)C(=O)OCCCOc3no[n+]([O-])c3S(=O)(=O)c3ccccc3)cc(OC)c3c1OCO3)OCO2`, for which, in [1], the IC50 worked out at 1.25 µM.
On the same count and under the same terms, next, `COC(=O)c1cc(OC)c2c(c1-c1c(C(=O)NCCC(=O)OCCOc3no[n+]([O-])c3S(=O)(=O)c3ccccc3)cc(OC)c3c1OCO3)OCO2`: 1.35 µM; `COC(=O)c1cc(OC)c2c(c1-c1c(C(=O)NCCC(=O)OC(C)(C)CCOc3no[n+]([O-])c3S(=O)(=O)c3ccccc3)cc(OC)c3c1OCO3)OCO2`: 1.36 µM.
Regarding `C[C@H](N)C(=O)OCCCCOc1no[n+]([O-])c1S(=O)(=O)c1ccccc1`, the “inhibition (INH)” value in series [2] is “Active”.
Turning to `COC(=O)c1cc(OC)c2c(c1-c1c(C(=O)NCCC(=O)OC(C)CCOc3no[n+]([O-])c3S(=O)(=O)c3ccccc3)cc(OC)c3c1OCO3)OCO2` (configuration not stated), in [1], the midpoint of inhibition, the IC50, lay at 1.15 µM.
In series [1], `COC(=O)c1cc(OC)c2c(c1-c1c(C(=O)N[C@@H](C)C(=O)OCCCCOc3no[n+]([O-])c3S(=O)(=O)c3ccccc3)cc(OC)c3c1OCO3)OCO2` registered an IC50 of 1.21 µM. In addition, the outcome in series [3] and in [6] was Active. The result in [4] and in series [11] was inactive. Moreover, the “inhibition (INH)” value in series [5] is given as “Not Active”; in series [7], “Not Active”; in series [8], “Not Active”; in series [9], “Not Active”; in series [10] it was “Active”; in series [12], “Dose-dependent effect”. The “inhibition (INH)” value in series [2] and in series [13] was “Active” throughout.
Compound `O=c1[nH]cc(F)c(=O)[nH]1` [FLUOROURACIL] yielded a half-inhibitory concentration (IC50) in [1] of 15.9 µM.
`COC(=O)c1cc(OC)c2c(c1-c1c(C(=O)NCCC(=O)NCCOc3no[n+]([O-])c3S(=O)(=O)c3ccccc3)cc(OC)c3c1OCO3)OCO2` registered an IC50 in series [1] of 1.25 µM.
Regarding `COC(=O)c1cc(OC)c2c(c1-c1c(C(=O)NCCC(=O)OCCCOc3no[n+]([O-])c3S(=O)(=O)c3ccccc3)cc(OC)c3c1OCO3)OCO2`, the IC50 in series [1] came out at 1.14 µM.
In series [1], `COC(=O)c1cc(OC)c2c(c1-c1c(C(=O)N[C@@H](C)C(=O)OCCOCCOc3no[n+]([O-])c3S(=O)(=O)c3ccccc3)cc(OC)c3c1OCO3)OCO2` displayed an IC50 of 1.49 µM. Besides, the outcome in [3] and in [6] was Active. Further, the outcome in [4] and in [11] was inactive. In addition, the “inhibition (INH)” value in series [5] was “Not Active”; in [7] it was “Not Active”; in [8], “Not Active”; in [9], “Not Active”; in [10], “Active”; in [12] it was “Dose-dependent effect”. Further, the “inhibition (INH)” value in [2] and in [13] was “Active” throughout.
Turning to `C[C@H](N)C(=O)OCCOCCOc1no[n+]([O-])c1S(=O)(=O)c1ccccc1`, in series [2], the “inhibition (INH)” value is reported as “Active”.
`COC(=O)c1cc(OC)c2c(c1-c1c(C(=O)NCCC(=O)OCCCCOc3no[n+]([O-])c3S(=O)(=O)c3ccccc3)cc(OC)c3c1OCO3)OCO2` yielded an IC50 in series [1] of 1.36 µM.
